Molecular target: Thrombin (Homo sapiens, UniProt P00734)
Assay: Thrombin inhibition assay (Sigma Thrombin Inhibitor Screening Kit MAK243)
[1] = 80 μM peptide (screening grade, mixture of diastereomers), 15 min preincubation with thrombin at room temperature, AMC-based peptide substrate, 37 °C, 30 min incubation, fluorescence Ex/Em 350/450 nm, 384-well, replicate 1 of 2
[2] = 80 μM peptide (screening grade, mixture of diastereomers), 15 min preincubation, AMC substrate, 37 °C, 30 min, fluorescence, average of two independent experiments

## Ac-G-P-[5-Qin]-F-NH2 [4B']
[1]
  Percent thrombin inhibition, 1st run: -2.1%
[2]
  Percent thrombin inhibition, Average: -2.5%
80 μM peptide (screening grade, mixture of diastereomers), 15 min preincubation, AMC substrate, 37 °C, 30 min, fluorescence, replicate 2 of 2
  Percent thrombin inhibition, 2nd run: -2.9%

## Ac-Gly-Pro-Phe-Phe-NH2 [Ac-G-P-F-F-NH2]
80 μM, parent peptide and HPLC-separated diastereomers of 3C' (>95% purity), 30 min incubation, average of three independent experiments
  Percent thrombin inhibition, Average: 7.1%
80 μM, parent peptide and HPLC-separated diastereomers of 3C' (>95% purity), 30 min incubation, replicate 1 of 3
  Percent thrombin inhibition, 1st run: 9.4%
80 μM, parent peptide and HPLC-separated diastereomers of 3C' (>95% purity), 30 min incubation, replicate 2 of 3
  Percent thrombin inhibition, 2nd run: 5.5%
80 μM, parent peptide and HPLC-separated diastereomers of 3C' (>95% purity), 30 min incubation, replicate 3 of 3
  Percent thrombin inhibition, 3rd run: 6.5%

## Ac-Gly-Pro-[N(Me)-2-Ind]-Phe-NH2 [3C']
[1]
  Percent thrombin inhibition, 1st run: 96.7%
[2]
  Percent thrombin inhibition, Average: 96.9%
80 μM peptide (screening grade, mixture of diastereomers), 15 min preincubation, AMC substrate, 37 °C, 30 min, fluorescence, average of two independent experiments, listed as 3C′
  Percent thrombin inhibition, Average: 97%
